According to patent US8461122B2, “Derivatives of morphine-6-glucuronide, preparation method thereof and use of same in therapeutics” (Sanofi, priority 2008, dated 2013):
Where two headings read alike, the source gives them in different places.

System: male Swiss mice
Settings: tail-flick; for ED50 60 min. post-administration: Table 2 (sc); for Duration of action / % MPE max: subcutaneous
Procedure: Tests consisting in measuring the in vivo activity of the compounds of the invention on a nociceptive reflex response were performed. In this approach, the latency of the animal's nociceptive reflex response is measured as a pain indicator.
The analgesic activity was determined by means of the “tail-flick” test in male Swiss mice (Iffa Credo). This test is based on the spontaneous nociceptive reflex of removal of the animal's tail caused by a painful heat stimulus (infrared source). The “tail-flick” test (D'Amour-Smith test, 1941, Pharmacol. Exp. Ther.; 72: 74-79) consists, after administering a product, in placing a mouse's tail at the focal point of the infrared source so as to produce a nociceptive heat stimulus (surface temperature of about 55-60° C.). The mouse's reaction time (RT) (latency between the moment when the light beam is switched on and the moment when the mouse removes its tail) was measured in duplicate at different times ranging from 20 minutes to 120 minutes after administration of the product. The heat intensity is regulated such that this removal reflex is between 0.5 and 3.5 seconds in the control animals, and arbitrarily represents the criterion for minimum analgesia (0%). Two reaction time measurements were taken before administration of the product for each mouse, to establish a baseline measurement time. A maximum time of 8 seconds was chosen as the maximum reaction time so as not to induce tissue damage by burning the animals, and arbitrarily represents the criterion for maximum analgesia (100%). The reaction time is increased by the analgesics relative to a control animal not receiving any treatment. The products were administered subcutaneously and orally at doses of between 1.25 and 30 mg/kg (expressed as salt).
The percentage of analgesic activity (% MPE) is determined by the following formula: % MPE=(RTpost-administration−RTpre-administration)*100/(RTmax−RTpre-administration)

[1] = dose 1.25 mg/kg (expressed as salt)
[2] = dose 10 mg/kg (expressed as salt)

Compound | ED50 60 min. post-administration | ED50 at 60 minutes (oral, 60 minutes) | percentage of maximum analgesic activity (% MPE max index) (oral, dose 10 mg/kg) | Duration of action (dose 1.25 mg/kg) | % MPE max [1] | Duration of action (dose 10 mg/kg) | % MPE max [2] | Duration of action (dose 5 mg/kg) | % MPE max (dose 5 mg/kg (expressed as salt))
Cc1nnc(C2O[C@@H](O[C@H]3C=C[C@H]4[C@H]5Cc6ccc(O)c7c6[C@@]4(CCN5C)[C@H]3O7)[C@H](O)[C@@H](O)[C@@H]2O)o1.O=C(O)C(F)(F)F (stereo partly drawn) [Compound 5, Morphin-6-yl 5-C-(2-methyl-1,3,4-oxadiazol-5-yl)-β-D-xylopyranoside trifluoroacetate] | <1.25 mg/kg | less than 2.5 mg/kg | 78% | >120 (1.25) minutes | 100 (1.25) % |  |  |  | 
Cc1nnc(C2O[C@H](O[C@H]3C=C[C@H]4[C@H]5Cc6ccc(O)c7c6[C@@]4(CCN5C)[C@H]3O7)[C@H](O)[C@@H](O)[C@@H]2O)o1.O=C(O)C(F)(F)F (stereo partly drawn) [Compound 4, Morphin-6-yl 5-C-(2-methyl-1,3,4-oxadiazol-5-yl)-α-D-xylopyranoside trifluoroacetate] | 8 mg/kg |  |  |  |  | 90 (10) minutes | 65 (10) % |  | 
Morphin-6-yl 5-C-(tetrazol-5-yl)-αβ-D-xylopyranoside trifluoroacetate [Compound 1] | 10 mg/kg |  |  |  |  | >120 (10) minutes | 50 (10) % |  | 
Morphin-6-yl 5-C-(2-methyl-1,3,4-oxadiazol-5-yl)-α/β-D-xylopyranoside trifluoroacetate [Compound 3] | 3.2 mg/kg |  |  |  |  |  |  | >120 (5) minutes | 100 (5) %
CN1CC[C@]23c4c5ccc(O)c4O[C@H]2[C@@H](O[C@@H]2O[C@H](c4nn[nH]n4)[C@@H](O)[C@H](O)[C@H]2O)C=C[C@H]3[C@H]1C5.O=C(O)C(F)(F)F [Compound 2, Morphin-6-yl 5-C-(tetrazol-5-yl)-β-d-xylopyranoside trifluoroacetate] | <1.25 mg/kg |  |  | >120 (1.25) minutes | 100 (1.25) % |  |  |  | 
